In one assay the test system is Caki-1. Description: MTT cell viability assay, Caki-1. Format: cell-based, human. To be noted: Caki-1, Kidney, 3 days culture. The protocol: (§1) 26 cancer cell lines were grown in normal growth medium in the presence of different concentrations Icaritin or Desmethylicaritin. After culture for 3 days, the cell viability was then measured by an MTT assay. […] Some EC50s were lower than 10 uM for these two compounds. […] Whereas, normal human mammary gland epithelial cells (MCF10A) were not sensitive to Icaritin and Desmethylicaritin. These cells grew well when treated with these two compounds at a concentration of 50 uM.

Another assay has as its system Jurkat T cell. Description: MTT cell viability assay, Jurkat T cell. Format: cell-based, human. Conditions: Leukemia, 3 days culture. The protocol: as §1
In the next assay the test system is SKOV3. In words: MTT cell viability assay, SKOV3. Format: cell-based, human. To be noted: SKOV3, Ovary, 3 days culture. The procedure:
as §1
On the technique in general: Tetrazolium assays rely on reduction of a dye to a coloured formazan, in cell work by metabolically active cells.

For another assay, the system named is A549. In words: MTT cell viability assay, A549. Format: cell-based, human. Conditions: A549, Lung, 3 days culture. The procedure: as §1
A further assay concerns BT-549. Description: MTT cell viability assay, BT-549. The class given is cell-based, human. Conditions: BT-549, Breast, 3 days culture. The protocol: as §1
For a further assay, the system named is CCL-225. In words: MTT cell viability assay, CCL-225. Format: cell-based, human. Conditions: CCL-225, Colon, 3 days culture. The procedure: as §1
The test system of a further assay is AU-565. Description: MTT cell viability assay, AU-565. Format: cell-based, human. Conditions: AU-565, Breast, 3 days culture. The protocol:
as §1

For another assay, the system named is D145. In words: MTT cell viability assay, D145. The class given is cell-based, human. Conditions: D145, Prostate, 3 days culture. The protocol:
as §1

Another assay has as its system estrogen receptor. Conditions: mediated by the estrogen receptor; cited from earlier work.
For the next assay, the system named is MCF-10a. In words: MTT cell viability assay, MCF-10a normal breast epithelial cells. Format: cell-based, human. The procedure: as §1
A further assay deals with HCT-116. In words: MTT cell viability assay, HCT-116. Format: cell-based, human. To be noted: HCT-116, Colon, 3 days culture. The protocol: as §1
The subject of a further assay is ACHN. In words: MTT cell viability assay, ACHN. Format: cell-based, human. To be noted: Kidney, 3 days culture. The procedure:
as §1

A further assay has as its system LNCAP. In words: MTT cell viability assay, LNCAP. Format: cell-based, human. Conditions: Prostate, 3 days culture. The protocol:
as §1

A further assay deals with MCF-7. In words: MTT cell viability assay, MCF-7. The class given is cell-based, human. Conditions: MCF-7, Breast, 3 days culture. The protocol:
as §1

The next assay has as its system IGROV1. In words: MTT cell viability assay, IGROV1. Format: cell-based, human. Conditions: IGROV1, Ovary, 3 days culture. The procedure:
as §1

For assay [1], the system named is FAS protein levels in LNCaP cells. Description: Western blot analysis for FAS protein levels. The class given is cell-based, human. On the technique in general: In western blotting, separated proteins are transferred to a membrane and probed.
Another assay relates to Widr. In words: MTT cell viability assay, Widr. Format: cell-based, human. Conditions: Colon, 3 days culture. The protocol:
as §1

The next assay deals with Mid PaCa-2. Description: MTT cell viability assay, Mid PaCa-2. Format: cell-based, human. Conditions: Mid PaCa-2, Pancreas, 3 days culture. The procedure: as §1
The next assay relates to LoVo. In words: MTT cell viability assay, LoVo. Conditions: Colon, 3 days culture. Format: cell-based, human. The protocol:
as §1

Another assay has as its system PC3. Description: MTT cell viability assay, PC3. Format: cell-based, human. Conditions: PC3, Prostate, 3 days culture. The protocol: as §1
Another assay deals with U-251. In words: MTT cell viability assay, U-251. To be noted: U-251, Glioblastoma, 3 days culture. Format: cell-based, human. The procedure: as §1
In another assay the test system is Raji. Description: MTT cell viability assay, Raji. The class given is cell-based, human. Conditions: Lymphoma, 3 days culture. The procedure:
as §1

For the next assay, the system named is G-361. Description: MTT cell viability assay, G-361. Format: cell-based, human. Conditions: G-361, Skin, 3 days culture. The procedure: as §1
In a further assay the test system is 786-O. In words: MTT cell viability assay, 786-O. Format: cell-based, human. Conditions: Kidney, 3 days culture. The protocol:
as §1

The test system of another assay is MDA-MB-435. Description: MTT cell viability assay, MDA-MB-435. To be noted: MDA-MB-435, Breast, 3 days culture. Format: cell-based, human. The protocol: as §1
The subject of the next assay is NCI-H23. Description: MTT cell viability assay, NCI-H23. To be noted: NCI-H23, Lung, 3 days culture. The class given is cell-based, human. The procedure: as §1
The next assay has as its system HT29. In words: MTT cell viability assay, HT29. The class given is cell-based, human. To be noted: HT29, Colon, 3 days culture. The protocol:
as §1

The next assay concerns SK-MEL-5. Description: MTT cell viability assay, SK-MEL-5. Format: cell-based, human. To be noted: SK-MEL-5, Skin, 3 days culture. The protocol:
as §1

The subject of the next assay is MDA-MB-231. Description: MTT cell viability assay, MDA-MB-231. Format: cell-based, human. To be noted: MDA-MB-231, Breast, 3 days culture. The procedure:
as §1

The test system of assay [2] is LNCaP cells and MDA-MB-231 cells. In words: Synthesis of lipid classes in cancer cells. The class given is cell-based, human. The protocol:
Icaritin and Desmethylicaritin decrease Lipogenesis in Prostate and Breast Cancer cells via inhibition of fatty acid synthase (FAS) Activity. Protein extracts from LNCaP cells, which had been ^14C-labeled with malonyl-CoA, were pretreated with these two compounds. A concentration of 0.5 μM Icaritin or Desmethylicaritin reduced the in vitro enzymatic FAS activity to less than 50%. […] Consistent with their FAS inhibitory effect, inhibition of lipogenesis by Icaritin and Desmethylicaritin affected the synthesis of phospholipids (including phosphatidylcholine, phosphatidylethanolamine, phosphatidylinositol, phosphatidylserine, and sphingomyelin) and of triglycerides in LNCaP cells and MDA-MB-231 cells. […] Cholesterol synthesis, however, accounts for less than 10% of the total lipogenic activity in LNCaP and MDA-MB-231 cancer cells, whereas ˜75 and 15% of the lipogenic activity in these cells represents phospholipid and triglyceride synthesis, respectively.

In a further assay the test system is CCL-247. Description: MTT cell viability assay, CCL-247. The class given is cell-based, human. To be noted: CCL-247, Colon, 3 days culture. The procedure:
as §1

The next assay deals with SN12C. In words: MTT cell viability assay, SN12C. The class given is cell-based, human. Conditions: Kidney, 3 days culture. The protocol: as §1
For assay [3], the system named is hepatoma or leukemia cell lines. To be noted: other studies; cited from earlier work.
Assay [4] concerns highly metastatic human lung cancer cells (PG). Conditions: PG cells in vitro; cited from earlier work.

The IC50 is the concentration needed to halve the response being measured. For the compound `CC(C)=CCc1c(O)cc(O)c2c(=O)c(O)c(-c3ccc(O)cc3)oc12` [Desmethylicaritin], the half-maximal inhibitory concentration (IC50) turned out to be 7.5 µM in the assay with Caki-1; 4.9 µM in the assay on Jurkat T cell; 10.4 µM with SKOV3; 10.7 µM with A549; 9.6 µM with BT-549; 8.9 µM in the assay on CCL-225. The concentration for half-maximal inhibition (IC50) in the assay with AU-565 was 8.9 µM; in the assay on D145, 9.8 µM; in the assay with MCF-10a (MCF-10a, Normal breast epithelial cells, 3 days culture, MTT) it was > 50 µM; in the assay with HCT-116, 6.9 µM; in the assay with ACHN, 9.7 µM; in the assay with LNCAP it was 6.1 µM. The IC50 in the assay on MCF-7 stood at 24.8 µM; in the assay on IGROV1 it was 11.2 µM; with Widr, 11.3 µM; in the assay on Mid PaCa-2, 8.6 µM; in the assay on LoVo, 10.5 µM; in the assay on PC3, 10.6 µM. The IC50 is 7.3 µM in the assay with U-251; 5.2 µM with Raji; 7.4 µM in the assay with G-361; 10.9 µM in the assay on 786-O; 12.7 µM in the assay on MDA-MB-435; 6.5 µM in the assay on NCI-H23. The half-maximal inhibitory concentration (IC50) in the assay on HT29 was determined as 16.8 µM; in the assay on SK-MEL-5, 10.8 µM; in the assay on MDA-MB-231, 6.5 µM; in the assay with CCL-247, 17.6 µM; in the assay with SN12C it was 15.9 µM. The estrogenic effect entry in the assay on estrogen receptor is “week phytoestrogens”. Further, the “sensitivity of normal human mammary gland epithelial cells (MCF10A)” value in the assay on MCF-10a (cells grew well at 50 uM) was “not sensitive”. Besides, the “FAS protein levels (Western blot)” value in assay [1] is “did not influence”. For the same compound, the synthesis of cholesterol entry in assay [2] (LNCaP and MDA-MB-231 cells) is reported as “decreased”. In addition, in assay [2] (LNCaP cells and MDA-MB-231 cells), the “synthesis of phospholipids and of triglycerides” value is “affected”.

Regarding `COc1ccc(-c2oc3c(CC=C(C)C)c(O[C@@H]4O[C@H](CO)[C@@H](O)[C@H](O)[C@H]4O)cc(O)c3c(=O)c2O[C@@H]2O[C@@H](C)[C@H](O)[C@@H](O)[C@H]2O)cc1` [ICA, Icariin], the “inhibition of hepatoma or leukemia cell lines” value in [3] is listed as “no inhibition”. Further, in [4], the “PG cells adhesive ratio to laminin substrate” value is reported as “decreased”, the “ability of invasion or migration” value was “decreased”, the cAMP/cGMP ratio result is “increased” and the “distribution of PG cells cycle” value is recorded as “reduce S phase”. Also, in assay [4], the “expression of membrane HLA-ABC antigen” value is given as “increase”, the “level of cAMP in PG cells” value is recorded as “increased”, the “level of cGMP” value is “reduced” and the “membrane fluidity of PG” value is reported as “enhance”.

The values above are taken from patent publication US20080214844A1, “Icaritin and desmethylicaritin as anti-cancer agents” (priority 2007, published 2008).
